Values after ≈ are worked out from the molar mass of the structure shown. Like-named read-outs stand apart in the source and are kept apart here.
What was measured:
MetRS (T. brucei) = molecular target: T1, MetRS (T. brucei) (Trypanosoma brucei brucei, UniProt Q38C91); assay: MetRS (T. brucei) enzyme inhibition; type: biochemical
T1 sequence (Q38C91 1-773): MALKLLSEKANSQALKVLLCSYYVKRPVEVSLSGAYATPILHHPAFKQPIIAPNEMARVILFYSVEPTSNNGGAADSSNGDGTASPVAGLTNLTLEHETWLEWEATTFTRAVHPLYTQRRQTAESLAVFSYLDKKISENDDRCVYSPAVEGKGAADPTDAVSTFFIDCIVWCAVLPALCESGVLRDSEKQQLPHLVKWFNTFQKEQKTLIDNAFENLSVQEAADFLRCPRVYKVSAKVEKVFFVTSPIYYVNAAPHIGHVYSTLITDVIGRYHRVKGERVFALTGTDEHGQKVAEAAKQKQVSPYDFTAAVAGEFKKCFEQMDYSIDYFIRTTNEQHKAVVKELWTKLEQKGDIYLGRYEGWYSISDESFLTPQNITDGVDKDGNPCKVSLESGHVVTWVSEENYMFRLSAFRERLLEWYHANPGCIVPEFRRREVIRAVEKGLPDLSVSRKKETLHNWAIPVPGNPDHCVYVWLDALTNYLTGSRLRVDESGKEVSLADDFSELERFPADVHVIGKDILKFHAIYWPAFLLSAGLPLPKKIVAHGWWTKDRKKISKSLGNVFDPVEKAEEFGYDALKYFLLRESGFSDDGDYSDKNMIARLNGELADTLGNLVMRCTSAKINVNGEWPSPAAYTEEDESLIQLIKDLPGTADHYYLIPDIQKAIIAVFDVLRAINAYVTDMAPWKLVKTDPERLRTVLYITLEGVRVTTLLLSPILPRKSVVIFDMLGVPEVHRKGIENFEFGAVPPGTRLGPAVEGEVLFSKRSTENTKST

[1] = system: E. faecium VRE (ATCC 51559); assay: MIC susceptibility testing; type: cell-based, Enterococcus faecium; conditions: Enterococcus faecium, E. faecium ATCC 51559; read-out: (I) E. faecium (ATCC 51559) MIC
Summary of the method: (§1)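 CLSI broth microdilution in triplicate, 5×10^5 CFU/mL final, ≤0.5% DMSO; MHB for S. aureus, CA-MHB for E. coli and E. faecium, CA-MHB plus 3% laked horse blood for S. pyogenes (5% CO2).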

[2] = molecular target: recombinant S. aureus MetRS enzyme (Staphylococcus aureus, UniProt A0A0H2XID2); assay: Inhibition of SaMetRS, ATP depletion assay; type: biochemical; conditions: read-out: (B) MetRS (S. aureus) IC50
Summary of the method: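 N-terminal 6-His S. aureus MetRS (25 nM) was pre-incubated 15 min at room temperature with compound, 400 μg/mL E. coli tRNA and pyrophosphatase in HEPES-KOH pH 7.9, 2% DMSO. Reaction started with 150 nM ATP plus 20 μM L-methionine, ran 120 min; remaining ATP read by Kinase-Glo luminescence, IC50 by sigmoidal nonlinear regression.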

[3] = system: G. lamblia (ATCC GL50803); assay: G. lamblia growth inhibition; type: cell-based; conditions: Giardia duodenalis, read-out: (K) G. lamblia (ATCC GL50803) EC50
MetRS (C. parvum) = MetRS (C. parvum) (Cryptosporidium parvum, UniProt Q5CVN0); assay: MetRS (C. parvum) enzyme inhibition; type: biochemical; conditions: read-out: (C) MetRS (C. parvum) IC50
[4] = system: S. aureus MRSA (ATCC 33591); assay: MIC susceptibility testing; type: cell-based, Staphylococcus aureus; conditions: MRSA ATCC33591; for MIC: Staphylococcus aureus, read-out: (G) MRSA (ATCC33591) MIC
Summary of the method: as §1

T. cruzi = T. cruzi growth inhibition; type: cell-based, Trypanosoma cruzi; conditions: read-out: (E) T. cruzi EC50
T. brucei = T. brucei growth inhibition; type: cell-based, Trypanosoma brucei; conditions: read-out: (D) T. brucei EC50
[5] = system: S. aureus MSSA (ATCC 29213); assay: MIC susceptibility testing; type: cell-based, Staphylococcus aureus; conditions: Staphylococcus aureus, S. aureus ATCC 29213; read-out: (F) S. aureus (ATCC 29213) MIC
C. parvum = C. parvum growth inhibition; type: cell-based, Cryptosporidium parvum; conditions: read-out: (J) C. parvum EC50

Sequence of MetRS (C. parvum) (Q5CVN0 entry or part of it): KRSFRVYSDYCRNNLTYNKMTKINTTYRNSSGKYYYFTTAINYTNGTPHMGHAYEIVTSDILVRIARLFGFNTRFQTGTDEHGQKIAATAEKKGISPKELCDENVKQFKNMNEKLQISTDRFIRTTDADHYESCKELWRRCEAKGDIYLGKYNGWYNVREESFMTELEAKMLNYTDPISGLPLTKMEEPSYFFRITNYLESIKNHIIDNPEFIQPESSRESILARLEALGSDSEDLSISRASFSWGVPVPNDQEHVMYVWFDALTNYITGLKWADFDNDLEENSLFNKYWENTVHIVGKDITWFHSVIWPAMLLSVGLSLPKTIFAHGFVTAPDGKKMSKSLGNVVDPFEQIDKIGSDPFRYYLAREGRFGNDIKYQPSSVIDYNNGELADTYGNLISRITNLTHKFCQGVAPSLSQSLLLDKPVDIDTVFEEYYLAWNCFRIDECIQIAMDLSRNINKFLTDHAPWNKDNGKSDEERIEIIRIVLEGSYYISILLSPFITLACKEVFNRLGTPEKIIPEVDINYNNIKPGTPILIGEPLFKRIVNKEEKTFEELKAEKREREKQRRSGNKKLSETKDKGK
Sequence of recombinant S. aureus MetRS enzyme (A0A0H2XID2 2-657): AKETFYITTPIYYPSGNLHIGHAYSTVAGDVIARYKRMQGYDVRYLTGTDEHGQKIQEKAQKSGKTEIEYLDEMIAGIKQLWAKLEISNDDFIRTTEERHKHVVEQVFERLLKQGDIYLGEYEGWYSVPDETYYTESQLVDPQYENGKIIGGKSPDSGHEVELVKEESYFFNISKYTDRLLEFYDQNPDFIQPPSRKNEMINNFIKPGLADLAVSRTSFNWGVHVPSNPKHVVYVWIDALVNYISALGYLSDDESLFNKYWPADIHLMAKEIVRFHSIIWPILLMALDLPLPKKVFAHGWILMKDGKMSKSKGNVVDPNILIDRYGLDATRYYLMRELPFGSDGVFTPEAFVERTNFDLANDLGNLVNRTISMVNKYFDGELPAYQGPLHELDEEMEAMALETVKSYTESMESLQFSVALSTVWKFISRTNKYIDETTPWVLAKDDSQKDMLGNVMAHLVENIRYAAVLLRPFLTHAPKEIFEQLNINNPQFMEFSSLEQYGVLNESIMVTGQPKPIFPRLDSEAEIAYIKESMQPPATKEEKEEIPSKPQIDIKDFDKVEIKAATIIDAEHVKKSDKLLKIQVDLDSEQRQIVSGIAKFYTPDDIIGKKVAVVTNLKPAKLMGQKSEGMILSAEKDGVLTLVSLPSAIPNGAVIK

SMILES	IC50 (MetRS (T. brucei))	MIC [1]	IC50 [2]	EC50 [3]	IC50 (MetRS (C. parvum))	(G) MRSA (ATCC33591) MIC [4]	MIC [4]	EC50 (T. cruzi; Trypanosoma cruzi)	EC50 (T. cruzi)	EC50 (T. brucei; Trypanosoma brucei)	MIC [5]	EC50 (C. parvum; Cryptosporidium parvum)	EC50 (C. parvum)	EC50 (T. brucei)
CCn1c(Cc2ccc(Cl)cc2Cl)cn(Cc2nc3ccc(Cl)nc3[nH]2)c1=O [Compound 2067, 1-({5-chloro-1H-imidazo[4,5-b]pyridin-2-yl}methyl)-4-[(2,4-dichlorophenyl)methyl]-3-ethyl-2,3-dihydro-1H-imidazol-2-one]	< 40 nM	> 2 µg/mL	< 25 nM	670 nM	< 40 nM	1.16 µg/mL	1.35 µg/mL (≈ 3.09 µM)	16.7 nM	32.3 nM	–	–	–	–	–
COc1ccc(-c2cccc3nc(Cc4nc5nc(F)ccc5[nH]4)cn23)c(Cl)c1 [Compound 2122, 5-(2-chloro-4-methoxyphenyl)-2-({5-fluoro-1H-imidazo[4,5-b]pyridin-2-yl}methyl)imidazo[1,2-a]pyridine]	< 40 nM	0.263 µg/mL (≈ 0.645 µM)	< 25 nM	220 nM	< 40 nM	–	0.909 µg/mL (≈ 2.23 µM)	703 nM	–	58.5 nM	0.419 µg/mL (≈ 1.03 µM)	976 nM	597 nM	–
COc1ccc(-c2cccc3nc(Cc4nc5nc(Cl)ccc5[nH]4)cn23)c(Cl)c1 [Compound 2119, 2-({5-chloro-1H-imidazo[4,5-b]pyridin-2-yl}methyl)-5-(2-chloro-4-methoxyphenyl)imidazo[1,2-a]pyridine]	< 40 nM	0.727 µg/mL (≈ 1.71 µM)	< 25 nM	60 nM	< 40 nM	–	1.04 µg/mL (≈ 2.45 µM)	196 nM	–	17.9 nM	0.285 µg/mL (≈ 0.672 µM)	480 nM	633 nM	29.3 nM

Source: patent publication US11584744B2 (UNIVERSITY OF WASHINGTON, priority 2017, dated 2023)
